Tests used:
[1] = target: T1, BmMetRS (Brucella melitensis methionyl-tRNA-synthetase) (Brucella abortus, UniProt Q2YQ76); experiment: biochemical
T1 construct: gene metG

[2] = target: T2, human mitochondrial MetRS (Homo sapiens, UniProt Q96GW9); experiment: enzyme inhibition, assay not given; assay type: biochemical
T2 construct: gene MARS2
T2 sequence (Q96GW9 30-593): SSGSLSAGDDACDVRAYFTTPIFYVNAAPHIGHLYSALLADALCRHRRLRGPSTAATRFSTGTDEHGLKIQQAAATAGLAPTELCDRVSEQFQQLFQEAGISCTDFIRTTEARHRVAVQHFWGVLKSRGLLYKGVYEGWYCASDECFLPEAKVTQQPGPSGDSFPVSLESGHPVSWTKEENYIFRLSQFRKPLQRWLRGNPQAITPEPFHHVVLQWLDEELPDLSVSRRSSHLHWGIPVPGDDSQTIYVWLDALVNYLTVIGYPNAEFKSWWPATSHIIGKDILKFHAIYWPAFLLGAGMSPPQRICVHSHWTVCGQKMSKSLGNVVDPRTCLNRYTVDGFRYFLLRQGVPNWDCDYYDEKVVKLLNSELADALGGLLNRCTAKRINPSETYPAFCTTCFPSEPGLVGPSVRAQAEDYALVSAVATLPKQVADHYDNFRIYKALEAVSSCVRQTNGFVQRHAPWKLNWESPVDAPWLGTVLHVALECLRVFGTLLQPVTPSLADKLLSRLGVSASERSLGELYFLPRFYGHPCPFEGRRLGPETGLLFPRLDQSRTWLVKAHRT

T1 sequence (Q2YQ76 1-515 limits assumed): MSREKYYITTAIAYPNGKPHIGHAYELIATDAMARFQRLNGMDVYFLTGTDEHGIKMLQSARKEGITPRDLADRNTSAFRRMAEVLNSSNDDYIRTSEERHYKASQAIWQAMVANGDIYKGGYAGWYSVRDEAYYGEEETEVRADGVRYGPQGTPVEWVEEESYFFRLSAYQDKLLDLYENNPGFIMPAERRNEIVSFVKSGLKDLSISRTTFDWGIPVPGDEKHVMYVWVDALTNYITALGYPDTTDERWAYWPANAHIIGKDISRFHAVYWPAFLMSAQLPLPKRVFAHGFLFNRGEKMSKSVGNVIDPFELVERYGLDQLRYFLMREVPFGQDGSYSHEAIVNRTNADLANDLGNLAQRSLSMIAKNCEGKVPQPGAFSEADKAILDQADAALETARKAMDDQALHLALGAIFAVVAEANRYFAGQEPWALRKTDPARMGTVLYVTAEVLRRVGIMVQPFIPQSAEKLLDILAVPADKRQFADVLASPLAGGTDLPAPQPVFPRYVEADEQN

SMILES	IC50 [1] [nM]	IC50 [2]
O=C(NCCCNCc1cc(Cl)cc(Cl)c1)Nc1ccsc1 [compound 1433, 1433]	272	The characteristics of each inhibitor experimentally measured against human mitochondria MetRS
O=c1cc(NCCCNCc2cc(Cl)cc(Cl)c2)[nH]c2ccccc12 [compound 1312, 1312]	6	the IC50 values from human mitochondrial MetRS is very similar to that of BmMetRS
COc1cc(Cl)cc(CNCCCNC(=O)Nc2ccccc2)c1 [compound 1415, 1415]	1660	The characteristics of each inhibitor experimentally measured against human mitochondria MetRS

— article PMC4976878 (PLoS ONE, 2016)
